Data from ChEMBL document CHEMBL1153133, “2,4-Diaminopyrimidine MK2 inhibitors. Part I: Observation of an unexpected inhibitor binding mode” (Bioorg Med Chem Lett, 2010).

Tests used:
[1] = target: T1, MAP kinase-activated protein kinase 2 (Homo sapiens, UniProt P49137); experiment: Inhibition of human recombinant phospho-MK2 (36-400) by HTRF assay
[2] = target: T1, MAP kinase-activated protein kinase 2; experiment: Displacement of [8-3H]ATP from human recombinant MK2 (36-400) by scintillation proximity assay
[3] = target: T1, MAP kinase-activated protein kinase 2; experiment: Displacement of [8-3H]ATP from human recombinant MK2 (41-364) by scintillation proximity assay

T1 sequence (P49137 whole entry): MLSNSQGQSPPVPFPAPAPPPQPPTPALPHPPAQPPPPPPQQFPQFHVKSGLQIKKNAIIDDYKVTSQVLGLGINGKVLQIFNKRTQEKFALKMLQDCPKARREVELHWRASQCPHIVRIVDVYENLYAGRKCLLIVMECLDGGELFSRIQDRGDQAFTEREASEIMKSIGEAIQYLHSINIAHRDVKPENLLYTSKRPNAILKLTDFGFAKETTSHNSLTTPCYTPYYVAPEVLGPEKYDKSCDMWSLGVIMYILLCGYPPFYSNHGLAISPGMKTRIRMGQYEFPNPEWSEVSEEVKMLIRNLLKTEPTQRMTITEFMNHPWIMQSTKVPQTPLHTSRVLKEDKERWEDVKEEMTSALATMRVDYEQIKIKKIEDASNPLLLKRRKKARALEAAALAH

Nc1ncnc2c1ncn2[C@@H]1O[C@H](COP(=O)(O)OP(=O)(O)OP(=O)(O)O)[C@@H](O)[C@H]1O (single isomer, unassigned) [ADENOSINE TRIPHOSPHATE]
IC50 [1]: 2.8 µM
IC50 [2]: 6.3 µM
IC50 [3]: 12 µM
